Experimental data published in ChEMBL document CHEMBL1201862, “PubChem BioAssay data set” (2004).
Calls of active or inactive are those of the source.

Key:
[1] = Luminescence Cell-Based Dose Confirmation HTS to Identify Inhibitors of Platelet Dense Granule Release. [Related pubchem assays: 1663 (Primary HTS), 1678 (Summary of Project)]; type: functional
[2] = molecular target: Luciferin 4-monooxygenase (Photinus pyralis, UniProt P08659); assay: inhibition of purified Photinus pyralis luciferase – biochemical, luminescence, dose response (AID 1891)
Luciferin 4-monooxygenase, sequence (P08659 whole entry): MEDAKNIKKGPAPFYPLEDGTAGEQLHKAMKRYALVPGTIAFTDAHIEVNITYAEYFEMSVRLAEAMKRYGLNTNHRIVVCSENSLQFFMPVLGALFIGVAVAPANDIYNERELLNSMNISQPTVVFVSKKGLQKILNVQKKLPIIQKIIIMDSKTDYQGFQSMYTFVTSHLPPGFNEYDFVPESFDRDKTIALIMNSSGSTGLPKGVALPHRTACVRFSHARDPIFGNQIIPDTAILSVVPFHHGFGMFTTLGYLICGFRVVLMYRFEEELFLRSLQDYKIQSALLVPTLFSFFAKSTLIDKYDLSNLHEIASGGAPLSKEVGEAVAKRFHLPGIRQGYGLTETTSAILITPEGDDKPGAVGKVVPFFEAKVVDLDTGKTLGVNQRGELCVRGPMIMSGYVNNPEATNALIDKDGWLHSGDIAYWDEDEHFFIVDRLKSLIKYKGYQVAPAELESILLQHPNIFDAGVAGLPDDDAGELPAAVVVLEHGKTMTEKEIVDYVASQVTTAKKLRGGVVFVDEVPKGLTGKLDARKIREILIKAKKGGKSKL

[3] = molecular target: T1, Replicative DNA helicase DnaB (Mycobacterium tuberculosis, UniProt P9WMR3); assay: DnaB intein splicing inhibitors, dose response, biochemical, cell-free fluorescence (AID 449749); type: functional
T1 sequence (P9WMR3 whole entry): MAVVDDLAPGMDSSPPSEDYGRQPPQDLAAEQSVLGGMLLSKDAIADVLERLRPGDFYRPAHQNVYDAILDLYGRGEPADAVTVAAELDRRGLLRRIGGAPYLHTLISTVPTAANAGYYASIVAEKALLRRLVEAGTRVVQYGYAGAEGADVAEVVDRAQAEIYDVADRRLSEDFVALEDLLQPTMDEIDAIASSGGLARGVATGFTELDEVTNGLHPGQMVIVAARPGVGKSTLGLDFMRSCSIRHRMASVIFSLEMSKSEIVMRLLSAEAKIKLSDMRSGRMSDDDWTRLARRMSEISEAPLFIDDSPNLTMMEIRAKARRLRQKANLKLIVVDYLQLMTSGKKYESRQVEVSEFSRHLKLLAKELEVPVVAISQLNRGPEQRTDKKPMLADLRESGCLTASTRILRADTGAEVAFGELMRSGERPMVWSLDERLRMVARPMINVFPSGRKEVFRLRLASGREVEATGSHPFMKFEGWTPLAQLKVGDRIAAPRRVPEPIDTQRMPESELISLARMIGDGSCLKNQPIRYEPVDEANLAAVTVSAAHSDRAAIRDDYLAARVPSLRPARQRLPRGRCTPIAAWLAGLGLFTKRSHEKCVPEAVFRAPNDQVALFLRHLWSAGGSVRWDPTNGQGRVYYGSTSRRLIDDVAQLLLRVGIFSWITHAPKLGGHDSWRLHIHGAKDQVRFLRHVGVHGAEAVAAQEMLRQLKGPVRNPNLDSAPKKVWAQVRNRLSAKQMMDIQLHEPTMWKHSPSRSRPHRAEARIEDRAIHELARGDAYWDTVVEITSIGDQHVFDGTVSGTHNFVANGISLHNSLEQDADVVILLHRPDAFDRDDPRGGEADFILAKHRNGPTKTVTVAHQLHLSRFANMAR

[4] = molecular target: T2, Protein RecA (Mycobacterium tuberculosis, UniProt P9WHJ3); assay: Fluorescence Cell-Free Homogeneous Dose Retest to Identify Inhibitors of RecA-Intein Splicing Activity. [Related pubchem assays (depositor defined):AID2097, AID2223, AID489010, AID492950]; type: functional
T2 sequence (P9WHJ3 whole entry): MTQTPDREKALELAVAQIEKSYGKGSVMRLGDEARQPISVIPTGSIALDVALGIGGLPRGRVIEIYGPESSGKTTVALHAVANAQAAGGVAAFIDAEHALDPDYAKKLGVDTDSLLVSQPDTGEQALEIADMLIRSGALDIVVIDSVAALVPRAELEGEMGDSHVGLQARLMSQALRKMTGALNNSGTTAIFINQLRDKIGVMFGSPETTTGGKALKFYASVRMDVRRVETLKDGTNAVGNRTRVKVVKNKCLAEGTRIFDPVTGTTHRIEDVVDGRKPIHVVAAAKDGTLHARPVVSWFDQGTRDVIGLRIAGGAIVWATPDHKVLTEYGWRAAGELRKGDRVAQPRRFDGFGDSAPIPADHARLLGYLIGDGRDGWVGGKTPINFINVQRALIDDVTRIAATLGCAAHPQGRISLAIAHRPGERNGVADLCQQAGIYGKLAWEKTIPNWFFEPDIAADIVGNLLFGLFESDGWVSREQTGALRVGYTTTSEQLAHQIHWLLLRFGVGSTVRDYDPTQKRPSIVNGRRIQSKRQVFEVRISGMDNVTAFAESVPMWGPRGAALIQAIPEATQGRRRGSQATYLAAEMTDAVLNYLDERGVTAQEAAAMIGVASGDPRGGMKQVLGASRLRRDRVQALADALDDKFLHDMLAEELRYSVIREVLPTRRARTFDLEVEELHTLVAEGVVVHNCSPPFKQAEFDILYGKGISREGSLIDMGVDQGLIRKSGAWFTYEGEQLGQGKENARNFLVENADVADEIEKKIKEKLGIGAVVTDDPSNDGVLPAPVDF

[5] = Trypanosoma cruzi growth suppression in host cells – NIH3T3 host cells, beta-gal luminescence, confirmation (AID 2044); type: functional, cell-based;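 further: intracellular parasites grown in NIH/3T3 mouse fibroblasts as host cells; luminescent beta-galactosidase reporter signal from transgenic T. cruzi replicating inside host cells; inhibitors lower the luminescence signal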
[6] = NIH3T3 cell viability loss – ATP luminescence, mouse fibroblasts, counter-screen, dose response (AID 2010); type: functional, cell-based;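 further: cells exposed to compound for about 90 hours before reading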
[7] = molecular target: Cytochrome P450 2D6 (Homo sapiens, UniProt P10635);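 further: CYP2D6 member of a cytochrome P450 panel assay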
Cytochrome P450 2D6, sequence (P10635 whole entry): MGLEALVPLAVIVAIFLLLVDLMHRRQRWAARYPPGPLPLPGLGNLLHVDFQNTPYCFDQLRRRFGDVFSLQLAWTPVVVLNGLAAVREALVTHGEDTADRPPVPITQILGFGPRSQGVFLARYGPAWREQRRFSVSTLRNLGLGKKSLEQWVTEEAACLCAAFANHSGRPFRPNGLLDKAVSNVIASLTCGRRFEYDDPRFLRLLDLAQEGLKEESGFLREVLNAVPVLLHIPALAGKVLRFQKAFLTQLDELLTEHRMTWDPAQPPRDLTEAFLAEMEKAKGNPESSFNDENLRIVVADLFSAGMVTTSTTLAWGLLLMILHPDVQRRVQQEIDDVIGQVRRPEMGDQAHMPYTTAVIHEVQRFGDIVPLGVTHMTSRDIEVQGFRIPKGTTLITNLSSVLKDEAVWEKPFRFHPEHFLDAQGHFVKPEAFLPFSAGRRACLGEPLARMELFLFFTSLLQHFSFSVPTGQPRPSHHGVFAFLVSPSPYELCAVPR

[8] = non-specific 3'UTR reporter inhibition in Clone20-Shn3RL – cell-based, Renilla luciferase, cherry-picked, counter-screen for Shn3 inhibitor project, dose response (AID 624133); type: functional
[9] = reduction of Shn3 3'UTR-driven luciferase in osteoblasts – cell-based, Clone20 osteoblasts, firefly luciferase, cherry-picked, dose response (AID 624132); type: functional;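 further: firefly luciferase luminescence from reporter carrying the Shn3 3'UTR in osteoblasts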
[10] = loss of viability in HepG2 cells – cell-based, CellTiter-Glo, cherry-picked, cytotoxicity control for Shn3 inhibitor project, dose response (AID 624134); type: functional
[11] = Luminescence Cell-Based Dose Response HTS to Identify Activators of Luciferase Translation or Activity in H4 […] Cells. [Related pubchem assays: 1829 (Project Summary), 1814 (Primary HTS)]; type: functional
[12] = tested on: H4; assay: Luminescence Cell-Based Dose Response HTS to Identify Activators of 5'UTR Stem-Loop Driven Prion Protein mRNA Translation in H4 Neuroglioblastoma Cells. [Related pubchem assays: 1829 (Project Summary), 1814 (Primary HTS)]; type: functional; details: Homo sapiens
[13] = Luminescence Cell-Based Dose Confirmation HTS to Identify Activators of 5'UTR Stem-Loop Driven Alpha-Synuclein mRNA Translation in H4 Neuroglioblastoma Cells. [Related pubchem assays: 1829 (Project Summary), 1814 (Primary HTS)]; type: functional
[14] = molecular target: T3, Cytochrome P450 1A2 (Homo sapiens, UniProt P05177);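 further: PubChem cytochrome P450 panel assay, CYP1A2 panel member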
T3 sequence (P05177 whole entry): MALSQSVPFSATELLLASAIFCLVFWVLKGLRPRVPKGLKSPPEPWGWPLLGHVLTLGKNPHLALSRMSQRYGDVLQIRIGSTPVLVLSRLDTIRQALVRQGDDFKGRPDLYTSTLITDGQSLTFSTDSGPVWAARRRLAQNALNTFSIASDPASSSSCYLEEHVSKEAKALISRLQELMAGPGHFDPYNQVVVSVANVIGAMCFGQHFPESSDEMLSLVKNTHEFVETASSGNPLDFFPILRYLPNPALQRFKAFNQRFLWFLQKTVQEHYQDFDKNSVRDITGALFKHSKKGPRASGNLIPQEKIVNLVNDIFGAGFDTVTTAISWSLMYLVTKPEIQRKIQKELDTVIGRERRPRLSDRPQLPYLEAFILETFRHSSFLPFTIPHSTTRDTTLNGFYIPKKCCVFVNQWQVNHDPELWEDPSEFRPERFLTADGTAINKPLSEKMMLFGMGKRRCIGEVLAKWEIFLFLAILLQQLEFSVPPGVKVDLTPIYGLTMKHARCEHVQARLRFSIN

[15] = molecular target: Cytochrome P450 2C19 (Homo sapiens, UniProt P33261); assay: Cytochrome panel assay with activity outcomes. Panel member name: p450-cyp2c19 Compounds with AC50 equal or less than 10 uM are considered active; type: functional
Cytochrome P450 2C19, sequence (P33261 whole entry): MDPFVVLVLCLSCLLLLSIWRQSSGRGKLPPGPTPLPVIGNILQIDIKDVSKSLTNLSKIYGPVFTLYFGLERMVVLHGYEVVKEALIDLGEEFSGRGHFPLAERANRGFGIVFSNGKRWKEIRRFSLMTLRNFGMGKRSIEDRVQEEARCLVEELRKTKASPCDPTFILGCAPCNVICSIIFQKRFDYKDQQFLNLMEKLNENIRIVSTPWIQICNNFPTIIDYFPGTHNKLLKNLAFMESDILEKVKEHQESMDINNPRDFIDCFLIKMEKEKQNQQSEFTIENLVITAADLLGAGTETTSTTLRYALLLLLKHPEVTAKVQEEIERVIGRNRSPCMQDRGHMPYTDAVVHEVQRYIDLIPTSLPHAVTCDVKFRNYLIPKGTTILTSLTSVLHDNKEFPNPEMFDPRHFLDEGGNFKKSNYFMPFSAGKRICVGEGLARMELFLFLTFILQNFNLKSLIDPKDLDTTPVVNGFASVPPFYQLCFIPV

[16] = molecular target: Cytochrome P450 3A4 (Homo sapiens, UniProt P08684);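 further: CYP3A4 tested as one member of a cytochrome P450 panel screen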
Cytochrome P450 3A4, sequence (P08684 whole entry): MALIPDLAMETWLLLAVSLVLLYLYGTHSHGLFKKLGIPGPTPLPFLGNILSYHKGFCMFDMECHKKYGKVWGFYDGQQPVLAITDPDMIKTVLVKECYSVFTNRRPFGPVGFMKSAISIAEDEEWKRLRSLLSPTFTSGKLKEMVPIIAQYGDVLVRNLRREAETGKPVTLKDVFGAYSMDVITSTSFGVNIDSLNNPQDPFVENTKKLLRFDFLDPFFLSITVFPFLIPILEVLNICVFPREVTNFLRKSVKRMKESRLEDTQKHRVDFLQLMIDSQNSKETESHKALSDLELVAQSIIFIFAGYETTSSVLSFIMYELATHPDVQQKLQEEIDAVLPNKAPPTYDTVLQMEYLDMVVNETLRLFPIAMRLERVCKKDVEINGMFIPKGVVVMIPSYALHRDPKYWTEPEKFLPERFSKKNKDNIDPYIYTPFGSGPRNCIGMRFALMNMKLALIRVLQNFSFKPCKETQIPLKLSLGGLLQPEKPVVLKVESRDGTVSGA

[17] = Luminescence Cell-Based Dose Response HTS to Identify Inhibitors of 5'UTR Stem-Loop Driven Prion Protein mRNA Translation in H4 Neuroglioblastoma Cells. [Related pubchem assays: 1827 (Project Summary), 1813 (Primary HTS)]; type: functional
[18] = alpha-synuclein stem-loop luciferase translation blockers – H4 neuroglioma cells, luminescence, confirmation (AID 1988); type: functional, cell-based

## O=C(O)C1C2CCC(C2)C1C(=O)Nc1ccccc1 (centres undefined)
[1]
  EC50: > 112 µM (not active)
[2]
  EC50: > 112 µM (not active)

## C/C(CC(=O)Nc1ccc(F)cc1F)=N\NC(=O)C(=O)N1CCCCC1
[3]
  AC50: 5 µM (active)
[4]
  EC50: 1.8 µM (active)

## O=C(CN(Cc1ccccc1Cl)C(=O)c1ccc(CN2CCOCC2)o1)NCc1ccccc1
[1]
  EC50: 62.6 µM (active)
[2]
  EC50: > 112 µM (not active)

## N=C(N)SCc1cn(-c2ccccc2)nc1-c1ccc(Br)cc1
[3]
  AC50: 8.68 µM (active)
[4]
  EC50: 11 µM (active)
[5]
  EC50: 1.03 µM (active)
[6]
  EC50: 11.2 µM (active)

## NCCCN1CCN(c2ccccc2)CC1
[7]
  AC50: 3.16 µM (inconclusive)

## C=CCN(c1ccccc1)S(=O)(=O)c1cccc(C(=O)Nc2nc3ccccc3[nH]2)c1
[8]
  AC50: 27.8 µM (active)
[9]
  AC50: 10.1 µM (active)
[10]
  AC50: 49.7 µM (active)

## Cc1ccc(-n2nc(C)c3c2OC(N)=C(C#N)C3c2cccs2)cc1 (centres undefined)
[11]
  EC50: 33 µM (active)
[12]
  EC50: > 120 µM (not active)
[3]
  AC50: 3.81 µM (active)
[13]
  EC50: > 120 µM (not active)

## Cc1nn(-c2ccccc2)c2c1C(c1ccncc1)C(C#N)=C(N)O2 (centres undefined)
[3]
  AC50: 12.7 µM (active)
[4]
  EC50: 3.05 µM (active)

## O=C(N1CCN(Cc2ccccc2)CC1)C12CC3CC(CC(C3)C1)C2
[1]
  EC50: > 112 µM (not active)
[2]
  EC50: > 112 µM (not active)

## O=C(c1ccco1)c1cn(CC(=O)N2CCCc3ccccc32)c2ccccc12
[1]
  EC50: > 112 µM (not active)
[2]
  EC50: > 112 µM (not active)

## COc1ccc(/C=C2/C(=O)N(c3ccccc3)N=C2C)cc1
[3]
  AC50: 4.44 µM (active)
[4]
  EC50: 1.7 µM (active)

## O=C1Oc2ccccc2C(=O)/C1=C\N1C(=O)N/C(=C\c2ccccc2O)C1=O
[14]
  AC50: 0.316 µM (inconclusive)
[15]; read-out: AC50
  AC50: 6.31 µM (inconclusive)
[7]
  AC50: 3.98 µM (inconclusive)
[16]
  AC50: 3.98 µM (inconclusive)

## CCCCCC(=O)O[C@]1(C(C)=O)CC[C@H]2[C@@H]3CCC4=CC(=O)CC[C@]4(C)[C@H]3CC[C@@]21C [HYDROXYPROGESTERONE CAPROATE]
[3]
  AC50: 11.9 µM (active)
[4]
  EC50: 4.88 µM (active)

## CN(C(=O)c1cc(S(=O)(=O)N2CCc3ccccc32)cn1C)C1CCCCC1
[1]
  EC50: > 112 µM (not active)
[2]
  EC50: > 112 µM (not active)

## Nc1ncnc(N)c1N=Nc1ccccc1
[17]
  EC50: 15.7 µM (active)
[18]
  EC50: 11.2 µM (active)

## Cc1ccc(CS(=O)(=O)CCC(=O)NCCN2CCCC2)cc1
[15]; read-out: AC50
  AC50: 39.8 µM (inconclusive)
[7]
  AC50: 0.1 µM (inconclusive)
[16]
  AC50: 25.1 µM (inconclusive)

## FC(F)(F)c1ccccc1-c1nccc(NCCN2CCOCC2)n1
[15]; read-out: AC50
  AC50: 6.31 µM (inconclusive)
[7]
  AC50: 12.6 µM (inconclusive)

## Nc1cccc(-c2nc3ccc(N)cc3s2)c1
[1]
  EC50: < 0.701 µM (active)
[2]
  EC50: 2.3 µM (active)

## CCc1cccc(NC2c3ccccc3C(=O)N2c2cccnc2)c1 (centres undefined)
[1]
  EC50: > 112 µM (not active)
[2]
  EC50: > 112 µM (not active)

## Cc1cccc(CNc2cc(-c3ccccc3CN(C)C)ncn2)c1
[15]
  AC50: inconclusive
[7]
  AC50: 20 µM (inconclusive)

## Cc1cnc(C)c(N2CCN(Cc3nc(-c4ccccc4)no3)CC2)n1
[1]
  EC50: > 112 µM (not active)
[2]
  EC50: > 112 µM (not active)

## CCOC(=O)CSc1nc(=O)c(NCC(=O)OC)n[nH]1
[3]
  AC50: 12 µM (active)
[4]
  EC50: 5.87 µM (active)

## CCCS(=O)(=O)N1CCCC(C(=O)NCCCN2CCN(c3ccc(F)cc3)CC2)C1 (centres undefined)
[7]
  AC50: 5.01 µM (inconclusive)

## NC(=O)CC(NC(=O)c1ccc(Br)cc1)c1ccc(N2CCC(Br)CC2)c([N+](=O)[O-])c1 (centres undefined)
[8]
  AC50: 17.5 µM (active)
[9]
  AC50: 4.19 µM (active)
[10]
  AC50: 62.8 µM (active)

## CCOC(=O)COc1cccc2c(=O)n(CC(=O)N3CCN(C(=O)OCC)CC3)ccc12
[1]
  EC50: > 112 µM (not active)
[2]
  EC50: > 112 µM (not active)

## COc1cc(C2(c3ccc(O)c(OC)c3)C(=O)Nc3c(C)cc(Br)cc32)ccc1O
[3]
  AC50: 5.77 µM (active)
[4]
  EC50: 14.4 µM (active)
